Where a name gives a salt, the structure may show the parent alone. Read-outs that look alike come from different tables or passages of the source.
Experiments:
[1] = tested on: Chloroquine/Pyrimethamine resistant Plasmodium falciparum K1; test: In vitro sensitivity assay: Plasmodium falciparum by 3H-hypoxanthine incorporation; assay type: cell-based; conditions: read-out: IC50 K1 in vitro
Protocol: Biological Test 1: In Vitro Sensitivity Assays: Plasmodium falciparum by ^3H-Hypoxanthine Incorporation.
The strain used for this assay is the Chloroquine/Pyrimethamine resistant Plasmodium falciparum K1 and drugs such as Chloroquine (10 mg/mL stock; start concentration 1000 ng/mL) and Artemisinine (Qinghaosu) (5 mg/mL stock; start concentration 10 ng/mL) were used as standards. Human red blood cells were used as host cells and the activity was measured using a ^3H-hypoxanthine incorporation assay.
Into a Costar™ 96-well microtitre plates, 100 μL of medium (RPMI 1640 without hypoxanthine 10.44 g/L, HEPES 5.94 g/L, Albumax® 5 g/L, Neomycin 10 mL/L, NaHCO3 2.1 g/L) were added to the wells of row containing drugs available from stock solutions of 10 mg/mL in DMSO (compounds were kept at −20° C. Since DMSO is toxic, care had to be taken not to exceed a final concentration of 0.5% DMSO). Then 100 μL of medium were added at rt to all wells of the plate. By means of a 12-well multi-pipette serial drug dilutions were prepared. A serial dilution factor of 1:2 is thus obtained. One row of wells without drugs served as controls. Next 100 μL of medium+washed human red blood cells A+(RBC) was added to the last 4 wells of the first row; these columns serve as background controls (that may be caused by 3H-hypoxanthine incorporation into RBC without the parasite). Into the remaining wells, 100 μL of medium+RBC+P. falciparum mix was added. The plates were placed for 48 h into a chamber at 37° C. gassed with a 4% CO2, 3% O2, 93% N2 mix. Finally 50 μL of medium+3H-hypoxanthine [(500 μL ^3H-hypoxanthine stock+500 μL EtOH+49 mL medium (0.5 μCi)] was added to each well and the plates were put back at 37° C. for 24 h into the chamber and gassed with a 4% CO2, 3% O2, 93% N2 mix. The plates were then read using the Cell Harvester and the data were transferred into a graphic program (Excel) and are evaluated to determine the IC50 by linear interpolation.

[2] = tested on: P. falciparum strain NF54; test: P. falciparum growth assay ([3H] hypoxanthine incorporation); assay type: cell-based; conditions: Plasmodium falciparum, NF54, read-out: IC50 NF54
Protocol: • Cultivation of P. falciparum:
P. falciparum strain NF54 was obtained from the Research and Reference Reagent
Resource Center (MR4) (Manassas, Va.). The two strains were maintained in vitro by a modification of the method of Trager and Jensen. Cultures were maintained in A positive (A+) human erythrocytes suspended at 5% hematocrit in complete medium. 5 g albumax II (Gibco-Invitrogen, Cat No#11021037), 2.5 mg gentamicin (Sigma Aldrich), 25 mM HEPES (Invitrogen), 5 mg hypoxanthine (Sigma), and 1 L of RPMI 1640 (Invitrogen, Cat No#11875085). Cultures were grown in 100 mm petri-dishes (BD Falcon) at a volume of 15 mL and were kept in a standard gas environment of 4% CO2 and 3% 02 at temperature 37° C. in a tri-gas incubator (Cat#3131, Thermo Scientific Forma Series II Water Jacketed). Parasite growth and morphology were observed daily using thin smears at 100× (oil immersion) magnification following staining with Geimsa stain. • P. falciparum growth assay:
The protocol assesses the compound efficacy against the growth of P. falciparum in-vitro.
Parasite growth was detected in assay by the traditional [3H] hypoxanthine incorporation assay as previously described by Desjardins and colleagues (Antimicrob. Agents Chemother., 16(6), 710, 1979). To perform the [3H] hypoxanthine incorporation assay, the new antimalarial agents were serially diluted 1:1 into hypoxanthine-free complete medium to a final volume of 100 μL (final antimalarial agent concentration range, 10,000 nM to 4.8 nM may change in special case) in 96 well sterile cell culture plates. […] All cultures used in the study are albumax II adopted. The microtiter plates were incubated in chamber in a standard gas environment at 37° C. for 72 h. After 48 h of incubation and prior to addition of 50 μL (0.5 μCi/well) 3H-Hypoxanthine (specific activity, 20 Ci/mmol, Conc. 1.0 mCi/ml; American Radiolabeled Chemicals, Inc., St. Louis, Mo.), culture growth was assessed by making the smears that ensures the culture has grown in % p and assay plate is further incubated for 24 h. Following the incubation period, the plates were harvested with a FilterMate cell harvester (Perkin Elmer) onto unifilter-96 GF/B plates, washed with distilled water to remove excess radiochemical and plates were kept for drying 37° C. overnight or 60° C. for 1 h. 50 μL of Microscint scintillation cocktail (Microscint-High Efficiency LSC-Cocktail; Perkin Elmer) added in the unifilter-96 GF/B plates and kept for 15-20 min. The plates were counted in a Top Count NXT microplate scintillation and luminescence counter (Perkin Elmer). The mean values for [3H]hypoxanthine incorporation in parasitized control and non-parasitized control erythrocytes were calculated.
Assay data were analyzed using Graph pad prism ver.5 software. A variable sigmoid dose response curve is plotted keeping log concentrations at X-axis and % inhibition at Y-axis.

[3] = tested on: Plasmodium berghei, (GFP ANKA strain); test: Plasmodium berghei acute in vivo model; conditions: NMRI mice, 50 mg/kg/day i.p., 4 daily doses; for decrease of parasitemia: day 4, relative to untreated control group; for Mean Survival Days: survival monitored up to 30 days
Protocol: Biological Test 2: Plasmodium berghei Acute In Vivo Model.
For this study Plasmodium berghei, (GFP ANKA strain) was used as parasite strain and drugs such as Chloroquine (Sigma C6628) Artemisinin (Sigma 36, 159-3) were used as positive controls.
For the assay a donor mouse with approximately 30% parasitaemia, heparinised blood (containing 50 μL of 200 μ/mL Heparin) was taken and diluted in physiological saline to 10^8 parasitized erythrocytes per mL. An aliquot (0.2 mL) of this suspension was injected intravenously (i.v.) into experimental groups of 3 mice (NMRI mice, females, 20-22 g), and a control group of 3 mice. The mice were studied in a standard macrolon cages type II at 22° C. and 60-70% relative humidity, and were fed with special pellets (PAB45—NAFAG 9009, Provimi Kliba A G, CH-4303 Kaiseraugst, Switzerland), water ad libitum. 4 hours post-infection—the experimental groups were treated with a single dose i.p of the tested drug. The dosage was 50 mg/kg/day and the drug concentration (DMSO 10%) was adjusted so that 0.1 mL/10 g was injected. In a similar manner after 24, 48 and 72 hours post-infection—the experimental groups were treated with a single daily dose i.p. Finally 24 hours after the last drug treatment, 1 μL tail blood was taken and dissolved in 1 mL PBS buffer. Parasitaemia was determined with a FACScan (Becton Dickinson) by counting 100'000 red blood cells. The difference between the mean value of the control group and those of the experimental groups was then calculated and expressed as a percent relative to the control group (=activity). The survival of the animals was monitored up to 30 days and mice surviving for 30 days were checked for parasitaemia and subsequently euthanised. A compound is considered curative if the animal survives to day 30 post-infection with no detectable parasites. The result is expressed as 1) reduction of parasitaemia on day 4 in % as compared to the untreated control group, and 2) mean survival of the group.
B. Franke-Fayard et al., Mol. Biochem. Parasitol., 137(1),23-33, 2004

[4] = tested on: P falciparum PF3D/^0087/N9; test: In vivo efficacy in a murine model of falciparum-malaria (4-day test); parameters: species or system Plasmodium falciparum
Text: Biological Experiment 5: In Vivo Efficacy Against P falciparum PF3D/^0087/N9 for the compound No. 6 Described in Example 6 • In vivo activity in a murine model of falciparum-Malaria Angulo-Barturen I, Jimenez-Diaz M B, Mulet T, Rullas J, Herreros E, et al. (2008) A Murine Model of falciparum-Malaria by In Vivo Selection of Competent Strains in Non-Myelodepleted Mice Engrafted with Human Erythrocytes. PLoS ONE 3(5): e2252. doi:10.1371/journal.pone.0002252.
This study measures the therapeutic efficacy of compound no. 6 against Plasmodium falciparum growing in peripheral blood of NODscidIL2Rynull mice engrafted with human erythrocytes. The antimalarial efficacy of compound no. 6 is assessed using a “4-day test”.
The parameters of efficacy estimated in the study are a) the dose of compound no. 6 in mg·kg-1 that reduces parasitemia at day 7 after infection by 90% with respect to vehicle-treated mice (parameter denoted as ED90) and b) the estimated average daily exposure in whole blood of compound no. 6 necessary to reduce P. falciparum parasitemia in peripheral blood at day 7 after infection by 90% with respect to vehicle-treated mice (parameter used to measure the potency of the compound and denoted as AUCED90).

[5] = Erythrocyte, P. falciparum K1 strain in human red blood cells, 3H-hypoxanthine incorporation

SMILES	IC50 ([1]; K1, Erythrocyte)	IC50 [2]	also measured
Fc1ccc2c(c1)c1cc(Cl)ccc1n2[C@@H]1CCNC[C@@H]1F [Compound 12, 3-Chloro-6-fluoro-9-((3S,4R)-3-fluoro-piperidin-4-yl)-9H-carbazole hydrochloride salt]	3670 nM		
F[C@@H]1CNCC[C@@H]1n1c2ccc(Cl)cc2c2cc(Cl)ccc21 [Compound 11, 3,6-Dichloro-9-((3R,4S)-3-fluoro-piperidin-4-yl)-9H-carbazole hydrochloride salt]	1150 nM		
CC(C)(C)OC(=O)N1CC[C@@H](O)[C@H](n2c3ccc(F)cc3c3cc(Cl)ccc32)C1 (racemic) [Compound 2, trans-3-(3-Chloro-6-fluoro-carbazol-9-yl)-4-hydroxy-piperidine-1-carboxylic acid tert-butyl ester]			IC50 [1, 5]: 127 nM
O[C@@H]1CNCC[C@H]1n1c2ccccc2c2ccccc21 [Compound 15, (3R,4R)-4-Carbazol-9-yl-piperidin-3-ol hydrochloride salt]	383 nM		
O[C@H]1CNCC[C@@H]1n1c2ccc(F)cc2c2cc(Cl)ccc21 [Compound 3, (3S,4S)-4-(3-Chloro-6-fluoro-carbazol-9-yl)-piperidin-3-ol hydrochloride salt]	3 nM		
O[C@@H]1CNCC[C@H]1n1c2ccc(F)cc2c2cc(F)ccc21 [Compound 10, (3R,4R)-4-(3,6-Difluoro-carbazol-9-yl)-piperidin-3-ol hydrochloride salt]	33 nM		
O[C@H]1CNCC[C@@H]1n1c2ccc(Cl)cc2c2cc(Cl)ccc21 [Compound 6, (3S,4S)-4-(3,6-Dichloro-carbazol-9-yl)-piperidin-3-ol hydrochloride salt]	10 nM	40.2 nM	decrease of parasitemia [3]: 99.8%; Mean Survival Days [3]: 30 days; ED90 ([4]; dose reducing parasitemia at day 7 after infection by 90% vs vehicle-treated mice, NODscidIL2Rynull mice engrafted with human erythrocytes): 22.5 mg/kg; AUCED90 ([4]; estimated average daily exposure in whole blood needed to reduce parasitemia at day 7 by 90% vs vehicle-treated mice): 28.5 μg · h · ml^−1 · day^−1
O[C@H]1CNCC[C@@H]1n1c2ccc(Cl)cc2c2cc(Cl)ccc21 (racemic) [Compound 5, Trans-4-(3,6-Dichloro-carbazol-9-yl)-piperidin-3-ol hydrochloride salt]	9 nM	109 nM	
Fc1ccc2c(c1)c1cc(Cl)ccc1n2[C@H]1CCNC[C@H]1F [Compound 13, 3-Chloro-6-fluoro-9-((3R,4S)-3-fluoro-piperidin-4-yl)-9H-carbazole hydrochloride salt]	886 nM		
O[C@@H]1CNCC[C@H]1n1c2ccc(Cl)cc2c2cc(Cl)ccc21 [Compound 7, (3R,4R)-4-(3,6-Dichloro-carbazol-9-yl)-piperidin-3-ol hydrochloride salt]	9 nM	41.2 nM	decrease of parasitemia [3]: 100%; Mean Survival Days [3]: 30 days
O[C@H]1CCNC[C@@H]1n1c2ccc(Cl)cc2c2cc(Cl)ccc21 (racemic) [Compound 8, trans-3-(3,6-dichloro-9H-carbazol-9-yl)piperidin-4-ol]			IC50 [1, 5]: 781 nM
O[C@H]1CNCC[C@@H]1n1c2ccc(F)cc2c2cc(F)ccc21 [Compound 9, (3S,4S)-4-(3,6-Difluoro-carbazol-9-yl)-piperidin-3-ol hydrochloride salt]	16 nM	307 nM	
